The test system of data set [1] is 3D human liver microtissues (hLiMT). Kind of data set: Cytotoxicity (cellular ATP, CellTiter-Glo 2.0) in 3D human liver microtissues, 14 day repeat-dose treatment.
For data set [2] the following is noted: cited from earlier work; for DILI category: clinical, from literature and product labels, ref Garside et al. 2014.
The conditions of data set [3]: cited from earlier work.
The conditions of data set [4]: ref Chen et al 2016 / Chen et al 2011; cited from earlier work.
In data set [5] the test system is primary human hepatocytes (PHH). In words: Cytotoxicity (cellular ATP, CellTiter-Glo) in 2D plated primary human hepatocytes, 48 h treatment.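 For all read-outs here: 384-well plates, luminescence read-out, normalized to vehicle wells with 1% DMSO.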 The data set is classed as cell-based. Conditions: for IC50: 2D primary human hepatocytes (lot IZT), 48 h treatment, total cellular ATP content, read-out: Geomean IC50.
Description: Cryopreserved PHH (lot IZT) were thawed in InVitroGro HT™ thawing media at 37 °C, pelleted, and resuspended. Viable hepatocytes were counted by Trypan blue exclusion and plated in black-walled, BioCoat™ collagen 384-well plates at 13,000 cells/well in InVitroGro CP™ plating media supplemented with 1% Torpedo™ Antibiotic Mix and 5% fetal bovine serum and incubated overnight for 18 h. Cells were then treated with compounds for 48 h diluted in InVitroGro HI™ incubation media containing 1% Torpedo Antibiotic Mix, 10% fetal bovine serum, and 1% DMSO. […] Luminescence was determined on an EnVision™ Muliplate Reader (PerkinElmer, Waltham, MA, USA), and data were normalized to vehicle (1% DMSO) control wells.
Where [6] appears, read: Homo sapiens, Hepatocyte, 336 h, read-out: Geomean IC50 [µM].
The mark [7] stands for this setting: Table 1, ref Garside et al. (2014).
The mark [8] stands for this setting: clinical DILI severity category, 1-5.
Where [9] appears, read: human Cmax total, used for IC50/Cmax.
Setting [10] is: human total plasma Cmax, ref literature values.

Read-outs that look alike come from different tables or passages of the source.

`CC(c1cc2ccccc2s1)N(O)C(N)=O` (stereo not drawn) [Zileuton]: the IC50 in data set [1] (setting [6]) and in data set [5] (Hepatocyte) was > 100 µM in each case. Also, the DILI severity category in data set [2] (setting [7]) is given as 2: High clinical DILI concern (N = 23); in data set [2] (setting [8]), 2. High Clinical DILI Concern. In addition, the DILI category in data set [2] was 2. High Clinical DILI Concern. Also, the peak concentration (Cmax) in data set [3] (setting [9]) and in data set [3] (setting [10]) was 13.1 µM in each case. For the same molecule, the “FDA DILI Classification DILI severity score” value in data set [4] is on record as 5. The “LTKB DILI classification” value in data set [4] is listed as “most DILI concern”.

In the case of `NC(=O)N1c2ccccc2C=Cc2ccccc21` [Carbamazepine], the IC50 in data set [1] (setting [6]) is 267 µM; in data set [5] (Hepatocyte) it was > 500 µM. The DILI severity category in data set [2] (setting [7]) was 2: High clinical DILI concern (N = 23); in data set [2] (setting [8]) it was 2. High Clinical DILI Concern. The DILI category in data set [2] is 2. High Clinical DILI Concern. Further, the Cmax in data set [3] (setting [9]) and in data set [3] (setting [10]) was 50.8 µM throughout. In data set [4], the “FDA DILI Classification DILI severity score” value was 7. Further, in data set [4], the “LTKB DILI classification” value is recorded as “most DILI concern”.

Take `CN(C)CCC=C1c2ccccc2CCc2ccccc21` [Amitriptyline]: the IC50 was determined as 18.8 µM in data set [1] (setting [6]) and 41.8 µM in data set [5] (Hepatocyte). In addition, the DILI severity category in data set [2] (setting [7]) is on record as 3: Low clinical DILI concern (N = 23); in data set [2] (setting [8]) it was 3. Low Clinical DILI Concern. For the same molecule, in data set [2], the DILI category was 3. Low Clinical DILI Concern. Besides, the Cmax in data set [3] (setting [9]) was 0.721 µM; in data set [3] (setting [10]), 0.72 µM. For the same molecule, the “FDA DILI Classification DILI severity score” value in data set [4] is listed as 5. Also, in data set [4], the “LTKB DILI classification” value is “less DILI concern”.

Take `CCC(C)n1ncn(-c2ccc(N3CCN(c4ccc(OCC5COC(Cn6cncn6)(c6ccc(Cl)cc6Cl)O5)cc4)CC3)cc2)c1=O` (stereo not drawn) [Itraconazole]: the results for the IC50 in data set [1] (setting [6]) and in data set [5] (Hepatocyte) were 1.6 µM and > 25 µM, respectively. Further, the DILI severity category in data set [2] (setting [7]) is recorded as 2: High clinical DILI concern (N = 23); in data set [2] (setting [8]) it was 2. High Clinical DILI Concern. Also, the DILI category in data set [2] is 2. High Clinical DILI Concern. Besides, the results for the Cmax in data set [3] (setting [9]) and in data set [3] (setting [10]) were 2.8 µM and 2.83 µM, respectively. Moreover, in data set [4], the “FDA DILI Classification DILI severity score” value is on record as 8. Also, the “LTKB DILI classification” value in data set [4] is on record as “most DILI concern”.

Turning to `CCc1ccc(CCOc2ccc(CC3SC(=O)NC3=O)cc2)nc1` (stereo not drawn) [Pioglizatone, Pioglitazone], the half-maximal inhibitory concentration (IC50) was > 15.6 µM in data set [1] (setting [6]) and > 125 µM in data set [5] (Hepatocyte). For the same molecule, the figures for the DILI severity category in data set [2] (setting [7]) and in data set [2] (setting [8]) were 3: Low clinical DILI concern (N = 23) and 3. Low Clinical DILI Concern, respectively. Further, the DILI category in data set [2] is recorded as 3. Low Clinical DILI Concern. The Cmax in data set [3] (setting [9]) and in data set [3] (setting [10]) was 2.95 µM in each case. The “FDA DILI Classification DILI severity score” value in data set [4] is on record as 3. In addition, in data set [4], the “LTKB DILI classification” value is “less DILI concern”.

`CCc1oc2ccccc2c1C(=O)c1cc(Br)c(O)c(Br)c1` [Benzbromarone]: the concentration for half-maximal inhibition (IC50) in data set [1] (setting [6]) came to 11.8 µM; in data set [5] (Hepatocyte), 171 µM. Besides, the DILI severity category in data set [2] (setting [7]) is given as 1: Severe clinical DILI (N = 23); in data set [2] (setting [8]), 1. Severe Clinical DILI. Also, the DILI category in data set [2] is 1. Severe Clinical DILI. The peak concentration (Cmax) in data set [3] (setting [9]) and in data set [3] (setting [10]) was 23.6 µM each time. Moreover, the “FDA DILI Classification DILI severity score” value in data set [4] was 8. Besides, the “LTKB DILI classification” value in data set [4] was “most DILI concern”.

Turning to `CC(C(=O)O)c1ccc2oc(-c3ccc(Cl)cc3)nc2c1` (stereo not drawn) [Benoxaprofen], the IC50 in data set [1] (setting [6]) and in data set [5] (Hepatocyte) was > 100 µM each time. Further, the DILI severity category is reported as 1: Severe clinical DILI (N = 23) in data set [2] (setting [7]) and 1. Severe Clinical DILI in data set [2] (setting [8]). Also, the DILI category in data set [2] was 1. Severe Clinical DILI. Also, the Cmax in data set [3] (setting [9]) and in data set [3] (setting [10]) was 149 µM each time. For the same molecule, in data set [4], the “FDA DILI Classification DILI severity score” value is listed as 8. The “LTKB DILI classification” value in data set [4] was “most DILI concern”.

On to `Cc1cn([C@H]2C=C[C@@H](CO)O2)c(=O)[nH]c1=O` [Stavudine], for which the IC50 in data set [1] (setting [6]) and in data set [5] (Hepatocyte) was > 500 µM throughout. The DILI severity category in data set [2] (setting [7]) is on record as 1: Severe clinical DILI (N = 23); in data set [2] (setting [8]), 1. Severe Clinical DILI. Moreover, in data set [2], the DILI category was 1. Severe Clinical DILI. Besides, the Cmax in data set [3] (setting [9]) and in data set [3] (setting [10]) was 3.46 µM in each case. In addition, the “FDA DILI Classification DILI severity score” value in data set [4] was 8. For the same molecule, in data set [4], the “LTKB DILI classification” value was “most DILI concern”.

Regarding `CC(=O)Oc1ccccc1C(=O)O` [Acetylsalicylic acid], the half-inhibitory concentration (IC50) in data set [1] (setting [6]) and in data set [5] (Hepatocyte) was > 1000 µM in each case. Further, the figures for the DILI severity category in data set [2] (setting [7]) and in data set [2] (setting [8]) were 3: Low clinical DILI concern (N = 23) and 3. Low Clinical DILI Concern, respectively. Also, in data set [2], the DILI category is 3. Low Clinical DILI Concern. The highest concentration (Cmax) in data set [3] (setting [9]) and in data set [3] (setting [10]) was 1110 µM each time. Also, the “FDA DILI Classification DILI severity score” value in data set [4] is 5.

With `Cc1cc2c(cc1CC(=O)c1sccc1S(=O)(=O)Nc1onc(C)c1Cl)OCO2` [Sitax(s)entan], the half-maximal inhibitory concentration (IC50) in data set [1] (read-out: Geomean IC50, decrease in total cellular ATP content, hLiMT treated for 14 days, hepatocyte lot IZT (except Dexamethasone) co-cultured with NPCs, n=1 or geometric mean) is 249 µM; in data set [5], > 500 µM. For the same molecule, the values for the DILI severity category in data set [2] (setting [7]) and in data set [2] (setting [8]) were 1: Severe clinical DILI (N = 23) and 1. Severe Clinical DILI, respectively. Further, in data set [2], the DILI category is 1. Severe Clinical DILI. For the same molecule, the Cmax in data set [3] (setting [9]) and in data set [3] (setting [10]) was 28.6 µM each time. Also, the “FDA DILI Classification DILI severity score” value in data set [4] is 8. The “LTKB DILI classification” value in data set [4] is listed as “most DILI concern”. For the same molecule, the “cytotoxicity IC50 detected” value in data set [5] (PHH 48 h, in words) is “no IC50 values were detected”.

In the case of `O=C1CN(/N=C/c2ccc(-c3ccc([N+](=O)[O-])cc3)o2)C(O)=N1` [Dantrolene], the half-inhibitory concentration (IC50) in data set [1] (setting [6]) and in data set [5] (Hepatocyte) was > 100 µM in each case. Besides, the values for the DILI severity category in data set [2] (setting [7]) and in data set [2] (setting [8]) were 1: Severe clinical DILI (N = 23) and 1. Severe Clinical DILI, respectively. In addition, the DILI category in data set [2] is given as 1. Severe Clinical DILI. Further, the Cmax in data set [3] (setting [9]) and in data set [3] (setting [10]) was 3.95 µM throughout. Further, the “FDA DILI Classification DILI severity score” value in data set [4] is given as 8. Further, the “LTKB DILI classification” value in data set [4] is given as “most DILI concern”.

On to `Cn1cnc([N+](=O)[O-])c1Sc1ncnc2nc[nH]c12` [Azathioprine], for which the IC50 in data set [1] (setting [6]) was 22.2 µM; in data set [5] (Hepatocyte), > 100 µM. Further, the DILI severity category in data set [2] (setting [7]) is 2: High clinical DILI concern (N = 23); in data set [2] (setting [8]), 2. High Clinical DILI Concern. For the same molecule, the DILI category in data set [2] was 2. High Clinical DILI Concern. Moreover, the highest concentration (Cmax) in data set [3] (setting [9]) is 7.2 µM; in data set [3] (setting [10]) it was 7.21 µM. Besides, in data set [4], the “FDA DILI Classification DILI severity score” value is 5. Moreover, the “LTKB DILI classification” value in data set [4] is listed as “most DILI concern”.

In the case of `O=c1[nH]c2ccccc2n1C1CCN(CCCC(c2ccc(F)cc2)c2ccc(F)cc2)CC1` [Pimozide], the figures for the IC50 in data set [1] (setting [6]) and in data set [5] (Hepatocyte) were > 6 µM and 17.6 µM, respectively. Further, the DILI severity category in data set [2] (setting [7]) is 3: Low clinical DILI concern (N = 23); in data set [2] (setting [8]), 3. Low Clinical DILI Concern. For the same molecule, in data set [2], the DILI category is listed as 3. Low Clinical DILI Concern. Moreover, the highest concentration (Cmax) in data set [3] (setting [9]) and in data set [3] (setting [10]) was 0.11 µM throughout. Moreover, the “FDA DILI Classification DILI severity score” value in data set [4] is given as 0. Also, the “LTKB DILI classification” value in data set [4] is listed as “no DILI concern”.

What is called IC50 is the concentration that inhibits the measured activity by half. What is called Cmax is the highest concentration seen after dosing.

(Values after paper PMC5515971, “Utility of spherical human liver microtissues for prediction of clinical drug-induced liver injury” (Archives of Toxicology, 2017).)
